The results in this text go back to patent US6503928B2, “Arylpiperidine and aryl-1,2,5,6-tetrahydropyridine amide derivatives” (Wyeth, priority 1998, dated 2003).

Structures can show the parent of a compound that is named as a salt.

In data set [1] the target is T1, human 5HT1A receptor (Homo sapiens, UniProt P08908).
T1 construct: expressed in transfected cells; host or cells: CHO cells (stably transfected)
T1 sequence (P08908 1-422): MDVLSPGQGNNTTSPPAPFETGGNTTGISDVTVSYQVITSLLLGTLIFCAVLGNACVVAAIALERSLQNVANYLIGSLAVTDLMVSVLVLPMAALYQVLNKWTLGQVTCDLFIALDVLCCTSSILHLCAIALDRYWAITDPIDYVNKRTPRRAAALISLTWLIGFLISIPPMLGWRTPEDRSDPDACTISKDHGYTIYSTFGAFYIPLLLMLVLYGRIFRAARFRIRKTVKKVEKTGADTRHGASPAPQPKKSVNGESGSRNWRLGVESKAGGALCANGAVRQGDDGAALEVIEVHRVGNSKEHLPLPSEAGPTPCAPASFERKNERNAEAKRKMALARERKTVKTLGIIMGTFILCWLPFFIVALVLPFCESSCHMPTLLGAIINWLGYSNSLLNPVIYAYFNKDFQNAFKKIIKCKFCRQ
The data set is described as follows: 5-HT1A receptor intrinsic activity assay (cAMP). The data set is classed as cell-based. The note with it: for EC50: agonist mode: reversal of forskolin-stimulated cAMP in CHO cells transfected with human 5-HT1A; for IC50: antagonist mode: reversal of agonist-induced activity, antagonist preincubated 20 minutes before agonist and forskolin. As to the method: 5-HT1A Receptor Intrinsic Activity Assay
The intrinsic activity of compounds of the present invention was established by testing the claimed compounds ability to reverse the stimulation of cyclic adenosinemonophosphate (cAMP) in CHO cells stably transfected with the human 5-HT1A receptor.
Stably transfected CHO cells were grown in DMEM containing 10% heat inactivated FBS and non-essential amino acids. The cells are plated at a density of […] cells per well in a 24 well plate and incubated for 2 days in a CO2 incubator. On the second day, the media is replaced with 0.5 mL treatment buffer (DMEM+25 mM HEPES, 5 mM theophylline, 10 μM pargyline) and incubated for 10 minutes at 37° C. Wells are treated with forskolin (1 μM final concentration) followed immediately by the test compound (0.1 and 1 μM for initial screen) and incubated for an additional 10 minutes at 37° C. The reaction is terminated by removal of the media and addition of 0.5 mL ice cold assay buffer (supplied in the RIA kit). Plates are stored at −20° C. prior to assessment of cAMP formation by RIA. EC50 values are determined for the active test compounds. Compounds shown to have no agonist activities (Emax=0%) are further analyzed for their ability to reverse agonist-induced activity. In separate experiments, 6 concentrations of antagonist are preincubated for 20 minutes prior to the addition of agonist and forskolin. Cells are harvested as described above. The cAMP kit is supplied by Amersham and the RIA is performed as per kit instructions, and calculations of IC50 performed by GraphPad Prism.

Data set [2] concerns the target T1, human 5HT1A receptor. Nature of the data set: 5-HT1A receptor binding assay ([3H] 8-OH-DPAT displacement). The note with it: displacement of [3H] 8-OH-DPAT, CHO cells stably transfected with human 5HT1A receptor. The protocol:
5-HT1A Receptor Binding Assay
High affinity for the serotonin 5-HT1A receptor was established by testing the compound's ability to displace [^3H] 8-OH-DPAT bindino in CHO cells stably transfected with human 5HT1A receptor. Stably transfected CHO cells are grown in DMEM containing 10% heat inactivated FBS and non-essential amino acids. Cells are scraped off the plate, transferred to centrifuge tubes, and washed twice by centrifugation (2000 rpm for 10 min., 4° C.) in buffer (50 mM Tris pH 7.5). The resulting pellets are aliquoted and placed at −80° C. On the day of assay, the cells are thawed on ice and resuspended in buffer. The binding assay is performed in a 96 well microtiter plate in a total volume of 250 μL. Non-specific binding is determined in the presence of […] 5-HT, final ligand concentration is 1.5 nM. Following a 30 minute incubation at room temperature, the reaction is terminated by the addition of ice cold buffer and rapid filtration through a GF/B filter presoaked for 30 minutes in 0.5% PEI. Compounds are initially tested in a single point assay to determine percent inhibition at […], and Ki values are determined for the active compounds.

Where [3] appears, read: agonist mode: reversal of forskolin-stimulated cAMP, Emax=0% means no agonist activity.

As a reminder, the melting point is the temperature, or range, at which the solid turns liquid. Compound `COc1ccccc1C1CCN(C[C@@H](Cc2ccccc2)NC(=O)C2CCCCC2)CC1` (as salt: fumarate) [Example 6, (R)-Cyclohexanecarboxylic Acid {1-Benzyl-2-[4-(2-methoxy-phenyl)-piperidin-1-yl]-ethyl}-amide] showed a melting point of 103 to 105 °C. By EC50 is commonly meant the concentration needed to bring the measured effect to its halfway point. Usually Ki stands for the equilibrium dissociation constant of an inhibitor or competing ligand from its target. A high value points to weaker binding. Turning to `COc1ccccc1C1=CCN(C[C@@H](Cc2ccccc2)NC(=O)C2CCCCC2)CC1` [Example 3, (R)-Cyclohexanecarboxylic Acid {1-Benzyl-2-[4-(2-methoxy-phenyl)-3,6-dihydro-2H-pyridin-1-yl]-ethyl}-amide], at human 5HT1A receptor [1], the EC50 is 3.4 nM. For the same compound, the affinity on human 5HT1A receptor [2] corresponds to a Ki of 0.22 nM. Broadly, the Emax is the size of the effect at its maximum, as opposed to the concentration needed. For orientation: IC50 means the midpoint of a concentration-inhibition curve. `COc1ccccc1C1CCN(C[C@@H](Cc2ccncc2)N(C)C(=O)C2CCCCC2)CC1` [Example 10, Cyclohexanecarboxylic acid {(1R)-2-[4-(2-Methoxy-phenyl)-piperidin-1-yl]-1-pyridin-4-ylmethyl-ethyl}-methyl-amide]: the Emax at human 5HT1A receptor [1] (setting [3]) was 0%. For the same compound, the IC50 on human 5HT1A receptor [1] amounted to 19.3 nM. Moreover, the Ki on human 5HT1A receptor [2] is 1.18 nM. Regarding `COc1ccccc1C1CCN(C[C@@H](Cc2cccnc2)N(C)C(=O)C2CCCCC2)CC1` (as salt: hydrochloride) [Example 9, Cyclohexanecarboxylic Acids {(1R)-2-[4-(2-Methoxy-phenyl)-piperidin-1-yl]-1-pyridin-3-ylmethyl-ethyl}-methyl-amide], the melting point was in the range of 148 to 150 °C. Same read-out and setting: in the case of `COc1ccccc1C1CCN(C[C@@H](Cc2ccccc2)NC(=O)C2(C)CCCCC2)CC1` (as salt: fumarate) [Example 5, (R)-1-Methyl-cyclohexanecarboxylic Acid {1-Benzyl-2-[4-(2-methoxy-phenyl)-piperidin-1-yl]-ethyl}-amide] it was 77 to 79 °C. Same read-out and setting: in the case of `COc1ccccc1C1=CCN(C[C@@H](Cc2ccccc2)NC(=O)C2CCCCC2)CC1` (as salt: fumarate) [Example 3, (R)-Cyclohexanecarboxylic Acid {1-Benzyl-2-[4-(2-methoxy-phenyl)-3,6-dihydro-2H-pyridin-1-yl]-ethyl}-amide] it was 146 to 148 °C. As to `COc1ccccc1C1=CCN(C[C@@H](Cc2ccccc2)NC(=O)C2(C)CCCCC2)CC1` [Example 4, (R)-1-Methyl-cyclohexanecarboxylic Acid {1-Benzyl-2-[4-(2-methoxy-phenyl)-3,6-dihydro-2H-pyridin-1-yl]-ethyl}-amide], on human 5HT1A receptor [1], the EC50 was 4.3 nM. The Ki at human 5HT1A receptor [2] came out at 0.25 nM. The compound `COc1ccccc1C1CCN(C[C@@H](Cc2ccncc2)NC(=O)C2(C)CCCCC2)CC1` (as salt: fumarate) [Example 8, 1-Methyl-cyclohexanecarboxylic Acid {(1R)-2-[4-(2-Methoxy-phenyl)-piperidin-1-yl]-1-pyridin-4-ylmethyl-ethyl}-amide] had a melting point of 108 to 110 °C.

Take `COc1ccccc1C1CCN(C[C@@H](Cc2cccnc2)NC(=O)C2(C)CCCCC2)CC1` [Example 7, 1-Methyl-cyclohexanecarboxylic Acid {(1R)-2-[4-(2-Methoxy-phenyl)-piperidin-1-yl]-1-pyridin-3-ylmethyl-ethyl}-amide]: on human 5HT1A receptor [1] (setting [3]), the Emax came to 0%. At human 5HT1A receptor [1], the IC50 came out at 38 nM. This compound returned a Ki on human 5HT1A receptor [2] of 0.74 nM.

Consider `COc1ccccc1C1CCN(C[C@@H](Cc2cccnc2)N(C)C(=O)C2CCCCC2)CC1` [Example 9, Cyclohexanecarboxylic Acids {(1R)-2-[4-(2-Methoxy-phenyl)-piperidin-1-yl]-1-pyridin-3-ylmethyl-ethyl}-methyl-amide], for which the Emax at human 5HT1A receptor [1] (setting [3]) came to 0%. The affinity at human 5HT1A receptor [2] corresponds to a Ki of 1.77 nM. In the same order, the values of `COc1ccccc1C1CCN(C[C@@H](Cc2ccncc2)NC(=O)C2(C)CCCCC2)CC1` [Example 8, 1-Methyl-cyclohexanecarboxylic Acid {(1R)-2-[4-(2-Methoxy-phenyl)-piperidin-1-yl]-1-pyridin-4-ylmethyl-ethyl}-amide] are 0% and 0.63 nM.

As to `COc1ccccc1C1=CCN(C[C@@H](Cc2ccccc2)NC(=O)C2(C)CCCCC2)CC1` (as salt: fumarate) [Example 4, (R)-1-Methyl-cyclohexanecarboxylic Acid {1-Benzyl-2-[4-(2-methoxy-phenyl)-3,6-dihydro-2H-pyridin-1-yl]-ethyl}-amide], the melting point is 102 to 104 °C. `COc1ccccc1C1CCN(C[C@@H](Cc2ccncc2)N(C)C(=O)C2CCCCC2)CC1` (as salt: hydrochloride) [Example 10, Cyclohexanecarboxylic acid {(1R)-2-[4-(2-Methoxy-phenyl)-piperidin-1-yl]-1-pyridin-4-ylmethyl-ethyl}-methyl-amide] gave a melting point of 158 to 160 °C. As to `COc1ccc(F)cc1C1=CCN(C[C@@H](Cc2ccccc2)N(C)C(=O)C2(C)CCCCC2)CC1` [Example 2, 1-Methyl-cyclohexanecarboxylic Acid {(1R)-1-Benzyl-2-[4-(5-fluoro-2-methoxy-phenyl)-1,2,5,6-tetrahydro-4H-pyridin-1-yl]-ethyl}-methyl-amide], the “cAMP Emax” value at human 5HT1A receptor [1] (setting [3]) amounted to 0%. The compound further displayed a Ki at human 5HT1A receptor [2] of 4.9 nM.

As to `COc1ccc(F)cc1C1CCN(C[C@@H](Cc2ccccc2)N(C)C(=O)C2(C)CCCCC2)CC1` (as salt: fumarate) [Example 1, 1-Methyl-cyclohexanecarboxylic Acid {(1R)-1-Benzyl-2-[4-(5-fluoro-2-methoxy-phenyl)-piperidine-1-yl]-ethyl}-methyl-amide], the melting point was 160 to 165 °C. On to `COc1ccccc1C1CCN(C[C@@H](Cc2cccnc2)NC(=O)C2(C)CCCCC2)CC1` (as salt: fumarate) [Example 7, 1-Methyl-cyclohexanecarboxylic Acid {(1R)-2-[4-(2-Methoxy-phenyl)-piperidin-1-yl]-1-pyridin-3-ylmethyl-ethyl}-amide], for which the melting point was 99 to 101 °C.
